The values below come from patent EP0380084A2, “Method for the inhibition of cell-cell and cell substratum interactions by the blocking of carbohydrate-carbohydrate interactions” (The Biomembrane Institute, priority 1989, dated 1990).

Entries after “also recorded” stand apart in the source; their conditions may differ.

For test [1], the system named is mouse T cell lymphoma L5178 AV27 cell line to B16 cells. The settings on record: 10 mM EDTA; 3H remaining after washing (Figure 2, panel c).
Experimental: Mouse B16 melanoma cells (which express a high level of GM₃) were purchased from American Type Culture Collection (Rockville, MD). Expression of GM₃ by B16 cells was defined by MAb DH2 (Dohi et al., Cancer Res. 48:5680-5685, 1988). Mouse T cell lymphoma line L5178 AA12 (which express a high level of Gg3, defined by MAb 2D4; Young et al., J. Exp. Med. 150:1008-1019, 1979) was cloned from 1C1 (Young et al., J. Immunol. 126:1-6, 1981). […] All cells were grown in RPMI 1640 containing 10% FCS.
B16 cells (5x10⁴/ml), highly expressing GM₃, were grown on 24-well plates (Falcon, Oxnard, CA) for 24 hrs in DME. The majority of adherent cells were washed with serum-free medium. AA12 cells (Gg3 expressors) or AV27 cells (Gg3 non-expressors) were grown in DME containing 2% FCS, 1 g/l glucose, and 50 µCi ³H-GlcNH₂ for 24 hrs. The labeled AA12 (71,000 cpm/10⁵ cells) and AV27 (33,000 cpm/10⁵ cells) were then collected by centrifugation, suspended in DME containing 2% FCS and 1 g/l glucose, and the cell population adjusted to 6x10⁵/ml. This suspension (1 ml) was added to each well of a Falcon plate on which B16 melanoma cells were grown as adherent culture. The incubated plates were then washed 2x with serum-free fresh medium. L5178 lymphoma cells not adhering to B16 cells were washed out. The remaining cells in each plate were trypsinized, collected, and counted. […]
The test system of test [2] is mouse teratocarcinoma F9 cells. The experiment in a line: F9 cell aggregation assay (microscopy and Coulter Counter count of single cells). The format is cell-based. Conditions: for self-aggregation of F9 cells: PBS with Ca2+ and Mg2+, 50 mM EDTA, 2 mM LFP II, 2 mM LFP III (Figure 1, panels a-d); for numbers of free (i.e., nonaggregated) cells: Coulter Counter, semiquantitative (Figure 1, panel e), 2 mM LFP II or LFP III. The protocol:
More specifically, mouse teratocarcinoma F9 cells (Bernstine et al., Proc. Natl. Acad. Sci. USA 70:3899-3903, 1973) were grown on gelatin-coated plates in Dulbecco's modified Eagle's medium (DME) containing 4.5 g/l glucose and supplemented with 10% fetal calf serum (FCS) (v/v). The plates were prepared by incubating 0.01% gelatin in water for 30 min.
F9 cells grown to confluency on gelatin-coated plates were harvested using standard trypsin/EDTA solution and washed in DME containing 10% FCS. Next, the cells were carefully resuspended in a PBS solution (containing 0.9 mM Ca²⁺, 0.5 mM Mg²⁺ and 0.1 mM Mn²⁺) and supplemented with 0.1% FCS. The cell samples were mixed carefully before pipetting, and both manual counting and counting with a Coulter Counter (Model ZBI, Coulter Electronics Inc., Hialeah, Fla.) were performed. Adjustments of the aperture on the Coulter Counter were made in order to correlate with the manual counting of the single cells, excluding aggregated cells. For aggregation assays, cells were adjusted to a concentration of about 2.6 x 10⁷/ml. After 1 hr at 37°C, 50 µl aliquots were mixed with 50 µl of ethylenediaminetetraacetic acid (EDTA), LFP II, or LFP III solutions, and cells were incubated for an additional 15 min at 37°C. […] Before measurements on the Coulter Counter, the 100 µl volume sample was diluted to 10 ml and mixed carefully. In experiments were photomicrographs of cells were taken, approximately 0.8 x 10⁶ cells were placed in different PBS solutions (final volume 100 µl) in small Petri dishes. The cell suspension was then covered by mineral oil and incubated at 37°C for 30-60 min, and the process of cell aggregation was observed under the microscope.
The degree of F9 cell aggregation was semiquantitatively expressed by numbers of free (i.e., nonaggregated) cells (panel e), as determined by Coulter Counter with an appropriate aperture setting.

The test system of test [3] is mouse T cell lymphoma L5178 AA12 cell line (high expressor of Gg3) to mouse B16 melanoma cell line (high expressor of GM₃). Put plainly: Adhesion of 3H-labeled L5178 AA12 lymphoma cells to B16 melanoma cell layer. The format is cell-based. Conditions: 10 mM EDTA, 5 mM sialyllactose, DH2 2 µg/ml, 2D4 5 µg/ml; 3H remaining after washing (Figure 2, panel c).
Experimental: Mouse B16 melanoma cells (which express a high level of GM₃) were purchased from American Type Culture Collection (Rockville, MD).
B16 cells (5x10⁴/ml), highly expressing GM₃, were grown on 24-well plates (Falcon, Oxnard, CA) for 24 hrs in DME. The majority of adherent cells were washed with serum-free medium. AA12 cells (Gg3 expressors) or AV27 cells (Gg3 non-expressors) were grown in DME containing 2% FCS, 1 g/l glucose, and 50 µCi ³H-GlcNH₂ for 24 hrs. The labeled AA12 (71,000 cpm/10⁵ cells) and AV27 (33,000 cpm/10⁵ cells) were then collected by centrifugation, suspended in DME containing 2% FCS and 1 g/l glucose, and the cell population adjusted to 6x10⁵/ml. This suspension (1 ml) was added to each well of a Falcon plate on which B16 melanoma cells were grown as adherent culture. The incubated plates were then washed 2x with serum-free fresh medium. L5178 lymphoma cells not adhering to B16 cells were washed out. The remaining cells in each plate were trypsinized, collected, and counted.
B16 melanoma cells grown in 24-well plates and L5178 lymphoma cells were treated respectively with DH2 solution (2 µg/ml) and 2D4 solution (5 µg/ml), left for 30 min at room temperature, washed with serum-­free fresh DME, and incubated with lymphoma cell suspension and melanoma cell layer for 5 hrs.
Test [4] concerns Le^x glycolipid. The experiment in a line: Interaction of Le^x liposomes with Le^x glycolipid coated on a plastic surface. The format is binding. The protocol:
A representative example of a carbohydrate-carbohydrate interaction is the recognition of Le^x(Galβ1 → 4[Fucα1 → 3]GlcNacβ1 → R) by Le^x per se. Le^x pentaosyl glycolipid (III³FucnLc₄) was prepared from human colonic adenocarcinoma.

Test [5] deals with Gg3/GM₃ interaction. Conditions: antibody: pretreatment of the Gg3-coated solid phase.
The subject of test [6] is Le^x liposomes. The experiment in a line: Self-aggregation of Le^x liposomes. The format is binding. The protocol: A representative example of a carbohydrate-carbohydrate interaction is the recognition of Le^x(Galβ1 → 4[Fucα1 → 3]GlcNacβ1 → R) by Le^x per se. Le^x pentaosyl glycolipid (III³FucnLc₄) was prepared from human colonic adenocarcinoma. Within the present invention, Le^x is shown to be the structure recognizing Le^x. […] Fourth, the diffusability of tritium-labeled LFP III (from the lower to the upper Boyden chamber through a semipermeable membrane) was inhibited by Le^x liposomes. In addition, the Le^x-Le^x interaction was highly dependent on bivalent cations (Ca²⁺, Mg²⁺) and was inhibited by EDTA.

Take `O=C(O)CN(CCN(CC(=O)O)CC(=O)O)CC(=O)O` [EDTA, ethylenediaminetetraacetic acid]: in test [1], the “Adhesion of AV27 cells to B16 cells” value is “greatly suppressed”. The “self-aggregation of F9 cells” value in test [2] is “aggregation did not occur; also recorded: inhibited”. Also, in test [3], the “Adhesion of AA12 cells on B16 melanoma” value is “greatly suppressed”. Also, the “Le^x-Le^x interaction” value in test [4] (dependent on bivalent cations (Ca2+, Mg2+)) was “inhibited”. The “interaction of Gg3-coated solid phase with GM₃-containing liposomes” value in test [5] is on record as “inhibited”.

With `CC(=O)N[C@H]1[C@H](O[C@H]2[C@@H](O)[C@@H](CO)O[C@@H](O[C@H]3[C@H](O)[C@@H](O)C(O)O[C@@H]3CO)[C@@H]2O)O[C@H](CO)[C@@H](O[C@@H]2O[C@@H](C)[C@@H](O)[C@@H](O)[C@@H]2O)[C@@H]1O[C@@H]1O[C@H](CO)[C@H](O)[C@H](O)[C@H]1O` (stereo partly drawn) [LFP II], in test [2], the “numbers of free (i.e., nonaggregated) cells” value is “much less” and the “self-aggregation of F9 cells” value is listed as “aggregation of F9 cells; also recorded: not by LFP II”.

On to sialyllactose, for which the “Adhesion of AA12 cells on B16 melanoma” value in test [3] was “markedly inhibited”.

Take `CC(=O)NC1C(OC2C(O)C(CO)OC(OC3C(CO)OC(O)C(O)C3O)C2O)OC(CO)C(OC2OC(CO)C(O)C(O)C2O)C1OC1OC(C)C(O)C(O)C1O` (stereo not drawn) [LFP III]: in test [2], the “numbers of free (i.e., nonaggregated) cells” value is listed as “increased greatly” and the “self-aggregation of F9 cells” value is on record as “aggregation was inhibited”. The “self-aggregation of Le^x liposomes” value in test [6] was “specifically inhibited”. Besides, the “interaction of Le^x liposomes with immobilized Le^x glycolipid” value in test [4] is reported as “specifically inhibited”.
